Data from PubChem BioAssay (NCI).
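Where inhibition never reached the appropriate level, the endpoint shown equals the highest concentration tested. Otherwise, values were interpolated linearly from a five-concentration, 48-hour dose response in 96-well plates. Here, GI50 denotes the concentration required for 50% inhibition of growth. TGI denotes the concentration required for complete inhibition of growth.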

Assays:
Assay in all cases: inhibition of tumour cell growth, NCI panel, 48 h
ACHN renal = system: ACHN renal
K-562 leukemia = system: K-562 leukemia
MDA-MB-435 = system: MDA-MB-435
NCI-H522 lung = system: NCI-H522 lung
OVCAR-5 ovarian = system: OVCAR-5 ovarian
RPMI-8226 leukemia = system: RPMI-8226 leukemia
SF-295 CNS = system: SF-295 CNS
SN12C renal = system: SN12C renal
TK-10 renal = system: TK-10 renal
UACC-257 melanoma = system: UACC-257 melanoma

Row | SMILES | GI50 (ACHN renal) [µM] | TGI (ACHN renal) [µM] | GI50 (K-562 leukemia) [µM] | TGI (K-562 leukemia) [µM] | GI50 (MDA-MB-435) [µM] | TGI (MDA-MB-435) [µM] | GI50 (NCI-H522 lung) [µM] | TGI (NCI-H522 lung) [µM] | GI50 (OVCAR-5 ovarian) [µM] | TGI (OVCAR-5 ovarian) [µM] | GI50 (RPMI-8226 leukemia) [µM] | TGI (RPMI-8226 leukemia) [µM] | GI50 (SF-295 CNS) [µM] | TGI (SF-295 CNS) [µM] | GI50 (SN12C renal) [µM] | TGI (SN12C renal) [µM] | GI50 (TK-10 renal) [µM] | TGI (TK-10 renal) [µM] | GI50 (UACC-257 melanoma) [µM] | TGI (UACC-257 melanoma) [µM]
1 | CCCN1C(=O)/C(=C/c2ccc(O)cc2)SC1=Nc1ccc(OC)cc1 | 12.7 | 25.3 | 12.5 | > 100 | 14.9 | 31.2 | 39.9 | > 100 | 15.9 | 29.6 | 12.4 | 42 | 14.7 | 34.9 | 16.8 | 34.5 | 18.4 | 39 | 17.3 | 31.7
2 | CC1CC(C)C2=NOS3=C2C1=NO3 (centres undefined) | – | > 100 | – | > 100 | – | > 100 | – | > 100 | – | > 100 | – | > 100 | – | > 100 | – | > 100 | – | > 100 | – | > 100
3 | O=C(NN1C(=O)CSC12CCCC2)C(O)c1ccccc1 (centres undefined) | > 100 | > 100 | > 100 | > 100 | > 100 | > 100 | > 100 | > 100 | > 100 | > 100 | > 100 | > 100 | > 100 | > 100 | > 100 | > 100 | > 100 | > 100 | > 100 | > 100
4 | COc1cc2ncn(-c3cc(OCc4ccccc4C(F)(F)F)c(C(C)=O)s3)c2cc1OC | > 25 | > 25 | > 25 | > 25 | 17.6 | > 25 | > 25 | > 25 | > 25 | > 25 | > 25 | > 25 | > 25 | > 25 | > 21.7 | > 25 | > 25 | > 25 | > 25 | > 25
5 | Nc1nc(N)c(N=Nc2ccc(C(=O)O)c(O)c2)c(N)n1 | – | > 100 | – | > 100 | – | > 100 | – | > 100 | – | > 100 | – | > 100 | – | > 100 | – | > 100 | – | > 100 | – | > 100
6 | CSc1ccc(C2=NN(C(C)=O)C(c3ccc(F)cc3)C2)cc1 (centres undefined) | 16.9 | 35.6 | 14.5 | 36 | 15 | 32.4 | 14.7 | 34.5 | 18.9 | 43.7 | 12 | 32.5 | 16.4 | 36.2 | 1.23 | 12.6 | 19.8 | 63.7 | 22.4 | 45
7 | CO[C@@H]1[C@H]2[C@@H](C)c3ccoc3C[C@@H]2[C@@]2(C)CC[C@H](OC(=O)c3ccccc3)[C@](C)(C(=O)O)[C@]2(O)[C@@H]1OC(=O)c1ccccc1 | 7.98 | 18.9 | 15.4 | > 50 | 7.97 | 19.5 | 34.9 | > 50 | 12 | 31.2 | 15.4 | > 50 | 10.3 | 41.4 | 7.11 | 17 | 14.3 | > 50 | 15.9 | 40.7
8 | CC(C)(C)c1ccc(O)c(CN(Cc2cc(C(C)(C)C)ccc2O)C2CCCCC2)c1 | – | 37.4 | – | 27.9 | – | 29.8 | – | 33.7 | – | 34.1 | – | 25.1 | – | 34 | – | 42.1 | – | 32.4 | – | 37.4
9 | COc1ccc(/C=C2\CC(C)CC3C2=NN(c2ccccc2)C3c2ccc(OC)c(OC)c2)cc1OC (centres undefined) | 4.48 | 48.6 | 1.85 | 5.4 | 3.2 | > 100 | 4.83 | > 100 | 3.16 | 12.1 | 3.38 | > 100 | 3.59 | 57.6 | 3.45 | 14.5 | 5.78 | > 100 | 7.94 | > 100
10 | CC[C@]12C=CCN3CC[C@@]4(c5ccc(OC)cc5N(C)[C@H]4[C@@](O)(C(=O)OC)[C@@H]1OC(=O)CCC(=O)N[C@H](Cc1c[nH]c4ccccc14)C(=O)OC)[C@@H]32 | 13.4 | 52.7 | 3.56 | > 100 | 5.42 | 22.5 | 14.4 | 34.9 | 14.1 | 45 | 3.63 | 44.7 | 15.8 | 39.5 | 3.68 | 23.9 | 13.5 | 29.4 | 6 | 23.1
11 | CC[C@@H](C)Nc1cc(C(=O)NC2CC3CCC(C2)N3c2ccc(C(=O)C3CC3)cn2)c(C)cc1C(N)=O (some centres undefined) | 0.0441 | > 100 | 0.0378 | > 100 | 0.0391 | > 39.3 | 0.0451 | 41.8 | 0.0706 | > 100 | 0.0538 | > 74.3 | 0.0288 | > 100 | 0.052 | > 100 | 0.0387 | 89 | 0.04 | 32
12 | CN(O)C(=S)c1ccccc1 | – | 37.7 | – | > 100 | – | > 100 | – | 0.688 | – | > 100 | – | 1.68 | – | 35.9 | – | > 55.4 | – | > 100 | – | 57.8
13 | Cc1cc(NNC(=O)c2ccccc2O)nc(Nc2nc3ccccc3o2)n1 | 1.02 | 12.2 | 2.31 | > 66.2 | 3.02 | 17.8 | 2.5 | 12.9 | 2.52 | 15.9 | 1.85 | 13.9 | 0.846 | 14.4 | 1.62 | 19.1 | 2.73 | 23.4 | 3.25 | 11.5
14 | CCN(CC)CC(C)(C)C(=O)/C=C/c1ccc(/C=C/C(=O)C(C)(C)CN(CC)CC)cc1 | – | 3.09 | – | – | – | 2.16 | – | 0.194 | – | 2.93 | – | 0.46 | – | 2.54 | – | 1.06 | – | 2.49 | – | 4.26
